In ChEMBL document CHEMBL1125786, “Synthesis and biological evaluation of hydroxamate-based iron chelators” (1991) one finds Iron output data, which are given here for three compounds.

Common to all, as to assay type: functional
Test [1] concerns Rattus norvegicus. Nature of the test: Total iron output induced by the compound in urine (non-iron-overloaded bile duct cannulated rat), after 24 hours of po administration.
Test [2] deals with Rattus norvegicus. Nature of the test: Total iron output induced by the compound in urine (non-iron-overloaded bile duct cannulated rat), after 24 hours of sc administration.
Test [3] relates to Rattus norvegicus. Nature of the test: Total iron output induced by the compound in bile (non-iron-overloaded bile duct cannulated rat), after 15 hours of po administration.
Test [4] concerns Rattus norvegicus. Description: Total iron output induced by the compound in bile (non-iron-overloaded bile duct cannulated rat), after 15 hours of sc administration.
Test [5] relates to Rattus norvegicus. Nature of the test: Total iron output induced by the compound in bile (non-iron-overloaded bile duct cannulated rat), after 18 hours of po administration.
Test [6] concerns Rattus norvegicus. Nature of the test: Total iron output induced by the compound in bile (non-iron-overloaded bile duct cannulated rat), after 18 hours of sc administration.
Test [7] has as its system Rattus norvegicus. Description: Total iron output induced by the compound in bile (non-iron-overloaded bile duct cannulated rat), after 21 hours of po administration.
Test [8] deals with Rattus norvegicus. Nature of the test: Total iron output induced by the compound in bile (non-iron-overloaded bile duct cannulated rat), after 21 hours of sc administration.
The test system of test [9] is Rattus norvegicus. Description: Total iron output induced by the compound in bile (non-iron-overloaded bile duct cannulated rat), after 24 hours of po administration.
In test [10] the test system is Rattus norvegicus. Description: Total iron output induced by the compound in bile (non-iron-overloaded bile duct cannulated rat), after 24 hours of sc administration.
The subject of test [11] is Rattus norvegicus. Nature of the test: Total iron output induced by the compound in bile (non-iron-overloaded bile duct cannulated rat), after 3 hours of po administration.
Test [12] relates to Rattus norvegicus. Nature of the test: Total iron output induced by the compound in bile (non-iron-overloaded bile duct cannulated rat), after 3 hours of sc administration.
The subject of test [13] is Rattus norvegicus. Nature of the test: Total iron output induced by the compound in bile (non-iron-overloaded bile duct cannulated rat), after 6 hours of po administration.
The subject of test [14] is Rattus norvegicus. Nature of the test: Total iron output induced by the compound in bile (non-iron-overloaded bile duct cannulated rat), after 6 hours of sc administration.
For test [15], the system named is Rattus norvegicus. Nature of the test: Total iron output induced by the compound in bile (non-iron-overloaded bile duct cannulated rat), after 9 hours of po administration.
In test [16] the test system is Rattus norvegicus. Nature of the test: Total iron output induced by the compound in bile (non-iron-overloaded bile duct cannulated rat), after 9 hours of sc administration.
In test [17] the test system is Rattus norvegicus. Nature of the test: Total iron output induced by the compound in non-iron-overloaded bile duct cannulated rat(Treated-control), after 24 hours of po administration.
For test [18], the system named is Rattus norvegicus. Nature of the test: Total iron output induced by the compound in non-iron-overloaded bile duct cannulated rat(Treated-control), after 24 hours of sc administration.
Test [19] relates to Rattus norvegicus. Description: Total iron output induced by the compound in non-iron-overloaded bile duct cannulated rat, after 24 hours of po administration.
Test [20] concerns Rattus norvegicus. Nature of the test: Total iron output induced by the compound in non-iron-overloaded bile duct cannulated rat, after 24 hours of sc administration.
Test [21] concerns Rattus norvegicus. Description: Total iron output induced by the compound in bile (non-iron-overloaded bile duct cannulated rat), after 12 hours of po administration.
Test [22] deals with Rattus norvegicus. Description: Total iron output induced by the compound in bile (non-iron-overloaded bile duct cannulated rat), after 12 hours of sc administration.

On to `COCCOCCOCCN(O)C(=O)CCC(=O)NCCCCCN(O)C(=O)CCC(=O)NCCCCCN(O)C(=O)COCCOCCOC`, for which the Iron output turned out to be 13.3 in test [1]; 45.3 in test [2]; 67.9 in test [3]; 509.1 in test [4]; 74.6 in test [5]; 526 in [6]. The Iron output worked out at 81.3 in [7]; 534.2 in test [8]; 86.6 in test [9]; 539.7 in test [10]; 16.3 in test [11]; 106.9 in test [12]. Also, the Iron output in [13] turned out to be 31.7; in test [14] it was 244.4; in test [15], 42.5; in test [16], 362.6; in test [17], 34.6; in test [18], 519.8. Besides, the Iron output in [19] is 99.8; in test [20] it was 585; in test [21], 59.7; in [22], 467.
Turning to `COCCOCCOCCN(O)C(=O)CCC(=O)NCCCCCN(O)C(=O)CCC(=O)NCCCCCN(O)C(C)=O`, the Iron output was 15 in test [1]; 68.4 in [2]; 76.5 in test [3]; 519.6 in test [4]; 83.8 in test [5]; 561.2 in test [6]. Moreover, the Iron output amounted to 89 in test [7]; 585.9 in [8]; 93.7 in test [9]; 599.5 in [10]; 20.2 in [11]; 117.3 in test [12]. Besides, the Iron output in test [13] came to 42.8; in [14], 262.5; in test [15], 56.8; in [16] it was 374.6; in test [17], 43.5; in test [18], 602.7. The Iron output was 108.7 in [19], 667.9 in test [20], 67.5 in [21] and 456.1 in [22].
In the case of `CC(=O)N(O)CCCCCNC(=O)CCC(=O)N(O)CCCCCNC(=O)CCC(=O)N(O)CCCCCN` [DEFEROXAMINE], the Iron output in [1] stood at 16.5; in [2] it was 49.2; in test [3] it was 110.8; in test [4], 196.2; in test [5], 119.8; in test [6], 210.7. In addition, the Iron output in test [7] is on record as 128.7; in test [8], 219.8; in test [9], 135; in test [10], 228.4; in test [11], 14.7; in [12] it was 43.6. Besides, the Iron output in test [13] came to 43.9; in test [14], 105.9; in test [15] it was 76.8; in test [16] it was 152.8; in test [17], 86.3; in [18], 212.4. The Iron output in [19] is listed as 151.5; in [20], 277.6; in test [21], 97.1; in test [22], 173.9.
